Experimental data published in the supplement of paper PMC11451515.

Columns and labels:
Details in all cases: 48 h
[1] = tested on: NOMO1; assay: AUC of viability dose-response curve (% viability x log10 dose units); higher = less sensitive
Procedure, shortened: (§1)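 Library compounds in DMSO were applied for 48 h at 37°C at 11 threefold doses (47 μM to 0.79 nM) to medium-adapted leukemia cells in 1536-well plates holding 500 or 1000 cells/well. Luminescence from CellTiter-Glo One was normalised plate by plate against DMSO and cell-free wells. Area under the curve came from trapezoidal integration of a log-logistic fit, after scaling curves that rose above full viability and discarding those that failed quality control. The fit had four parameters and used log10 doses.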

[2] = tested on: P12-Ichikawa; assay: as above
Procedure, shortened: as §1

[3] = tested on: SEM cells; assay: as above
Procedure, shortened: as §1

[4] = tested on: NOMO1; assay: cell viability relative to DMSO control; higher = less cytotoxic
Procedure, shortened: (§2)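 Viability is expressed as a percentage of DMSO wells within each plate, and cell-free wells serve as background. Seeding densities in the 1536-well plates (5 μl) were 500 cells/well for NOMO1 or SEM leukemia cells and 1000 cells/well for P12-Ichikawa. Each line was adapted for at least four passages in each medium. Library compounds in DMSO were pin-dosed at 47 μM to 0.79 nM (11 points, threefold), and CellTiter-Glo One luminescence was read after 48 h at 37°C.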

[5] = tested on: P12-Ichikawa; assay: as above
Procedure, shortened: as §2

[6] = tested on: SEM cells; assay: as above
Procedure, shortened: as §2

CC[C@H]1OC(=O)[C@H](C)[C@@H](O[C@H]2C[C@@](C)(OC)[C@@H](O)[C@H](C)O2)[C@H](C)[C@@H](O[C@@H]2O[C@H](C)C[C@H](N(C)C)[C@H]2O)[C@](C)(OC)C[C@@H](C)C(=O)[C@H](C)[C@@H](O)[C@]1(C)O
AUC of viability dose-response curve
Details	[1]	[2]	[3]
HPLM + 10% dialyzed FBS	405	435	452
RPMI 5 mM glucose + 10% FBS	440	443	461
RPMI 5 mM glucose + 10% dialyzed FBS	409	437	452

cell viability [%]
Details	[4]	[5]	[6]
HPLM + 10% dialyzed FBS, 0.000781 µM	110	109	96.8
HPLM + 10% dialyzed FBS, 0.00234 µM	121	102	95.3
HPLM + 10% dialyzed FBS, 0.00702 µM	96.8	98	98.4
HPLM + 10% dialyzed FBS, 0.0211 µM	105	98.7	98.4
HPLM + 10% dialyzed FBS, 0.0632 µM	89.3	103	103
HPLM + 10% dialyzed FBS, 0.19 µM	92.2	96.7	91.7
HPLM + 10% dialyzed FBS, 0.569 µM	92.6	95.8	93.8
HPLM + 10% dialyzed FBS, 1.71 µM	90.9	93.2	97.3
HPLM + 10% dialyzed FBS, 5.12 µM	84.9	91.6	84.6
HPLM + 10% dialyzed FBS, 15.4 µM	88.3	93.5	92.7
HPLM + 10% dialyzed FBS, 46.1 µM	101	82.1	87.6
RPMI 5 mM glucose + 10% FBS, 0.000781 µM	103	94.3	97
RPMI 5 mM glucose + 10% FBS, 0.00234 µM	101	103	102
RPMI 5 mM glucose + 10% FBS, 0.00702 µM	99.5	98.6	96
RPMI 5 mM glucose + 10% FBS, 0.0211 µM	101	88.4	99
RPMI 5 mM glucose + 10% FBS, 0.0632 µM	97	96.3	103
RPMI 5 mM glucose + 10% FBS, 0.19 µM	105	98.5	106
RPMI 5 mM glucose + 10% FBS, 0.569 µM	84	90.8	105
RPMI 5 mM glucose + 10% FBS, 1.71 µM	92.9	89.8	95.8
RPMI 5 mM glucose + 10% FBS, 5.12 µM	81.5	86	90.4
RPMI 5 mM glucose + 10% FBS, 15.4 µM	79.2	84.2	93.4
RPMI 5 mM glucose + 10% FBS, 46.1 µM	81.2	89.6	84.7
RPMI 5 mM glucose + 10% dialyzed FBS, 0.000781 µM	86.3	93.2	105
RPMI 5 mM glucose + 10% dialyzed FBS, 0.00234 µM	87.5	98.5	111
RPMI 5 mM glucose + 10% dialyzed FBS, 0.00702 µM	83.1	96.3	111
RPMI 5 mM glucose + 10% dialyzed FBS, 0.0211 µM	92.6	88	101
RPMI 5 mM glucose + 10% dialyzed FBS, 0.0632 µM	93.8	94.8	110
RPMI 5 mM glucose + 10% dialyzed FBS, 0.19 µM	87.8	94.3	105
RPMI 5 mM glucose + 10% dialyzed FBS, 0.569 µM	79.7	90.5	117
RPMI 5 mM glucose + 10% dialyzed FBS, 1.71 µM	80.5	85.6	114
RPMI 5 mM glucose + 10% dialyzed FBS, 5.12 µM	84	90.8	82.4
RPMI 5 mM glucose + 10% dialyzed FBS, 15.4 µM	84.4	94.2	93
RPMI 5 mM glucose + 10% dialyzed FBS, 46.1 µM	83.4	81.2	83.2

CCNC(=O)CCC/C=C\C[C@@H]1[C@@H](/C=C/C(O)CCc2ccccc2)[C@@H](O)C[C@@H]1O (stereo partly specified)
AUC of viability dose-response curve
Details	[1]	[2]	[3]
HPLM + 10% dialyzed FBS	460	448	466
RPMI 5 mM glucose + 10% FBS	456	453	473
RPMI 5 mM glucose + 10% dialyzed FBS	459	431	461

cell viability [%]
Details	[4]	[5]	[6]
HPLM + 10% dialyzed FBS, 0.000781 µM	104	117	96.2
HPLM + 10% dialyzed FBS, 0.00234 µM	108	121	116
HPLM + 10% dialyzed FBS, 0.00702 µM	106	111	100
HPLM + 10% dialyzed FBS, 0.0211 µM	131	111	98.8
HPLM + 10% dialyzed FBS, 0.0632 µM	112	116	115
HPLM + 10% dialyzed FBS, 0.19 µM	130	114	104
HPLM + 10% dialyzed FBS, 0.569 µM	103	111	104
HPLM + 10% dialyzed FBS, 1.71 µM	116	114	108
HPLM + 10% dialyzed FBS, 5.12 µM	105	105	108
HPLM + 10% dialyzed FBS, 15.4 µM	110	106	91.2
HPLM + 10% dialyzed FBS, 46.1 µM	39.5	99.7	87.4
RPMI 5 mM glucose + 10% FBS, 0.000781 µM	116	109	95.4
RPMI 5 mM glucose + 10% FBS, 0.00234 µM	118	125	112
RPMI 5 mM glucose + 10% FBS, 0.00702 µM	124	109	110
RPMI 5 mM glucose + 10% FBS, 0.0211 µM	106	130	98.7
RPMI 5 mM glucose + 10% FBS, 0.0632 µM	108	122	118
RPMI 5 mM glucose + 10% FBS, 0.19 µM	105	109	111
RPMI 5 mM glucose + 10% FBS, 0.569 µM	113	111	117
RPMI 5 mM glucose + 10% FBS, 1.71 µM	120	112	118
RPMI 5 mM glucose + 10% FBS, 5.12 µM	118	109	111
RPMI 5 mM glucose + 10% FBS, 15.4 µM	102	103	98.2
RPMI 5 mM glucose + 10% FBS, 46.1 µM	38	95	100
RPMI 5 mM glucose + 10% dialyzed FBS, 0.000781 µM	113	121	89.6
RPMI 5 mM glucose + 10% dialyzed FBS, 0.00234 µM	121	120	117
RPMI 5 mM glucose + 10% dialyzed FBS, 0.00702 µM	106	127	128
RPMI 5 mM glucose + 10% dialyzed FBS, 0.0211 µM	116	111	107
RPMI 5 mM glucose + 10% dialyzed FBS, 0.0632 µM	114	110	120
RPMI 5 mM glucose + 10% dialyzed FBS, 0.19 µM	105	105	109
RPMI 5 mM glucose + 10% dialyzed FBS, 0.569 µM	120	116	102
RPMI 5 mM glucose + 10% dialyzed FBS, 1.71 µM	105	106	106
RPMI 5 mM glucose + 10% dialyzed FBS, 5.12 µM	118	111	114
RPMI 5 mM glucose + 10% dialyzed FBS, 15.4 µM	111	97.3	107
RPMI 5 mM glucose + 10% dialyzed FBS, 46.1 µM	32.3	86.6	81.3
